System: HT-1080 (ATCC, CCL-121) cells
Assay: HT-1080 cell viability assay with ferroptosis inducer RSL3 (Cell Titer-Glo)
Assay type: cell-based
Conditions: Homo sapiens; HT-1080 cells treated with RSL3; 3-fold, 10-point dilution, 1.1 μM highest concentration; Table 2; read-out: EC50 (nM), ferroptosis inhibitory activity
How it was run: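 EC50 was derived by sigmoidal dose-response regression of CellTiter-Glo luminescence viability, expressed relative to untreated wells. Compounds were tested in a ten-point, threefold dilution series (highest 1.1 μM) in the presence of the ferroptosis inducer RSL3. HT-1080 cells had been seeded at 6000 per well and grown overnight first.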

SMILES | EC50 [nM]
Cc1cc2c(C)cc(=O)oc2cc1Nc1ccc(N2CCC(C(F)(F)F)CC2)cc1 [Compound 126, 4,6-dimethyl-7-((4-(4-(trifluoromethyl)piperidin-1-yl)phenyl)amino)-2H-chromen-2-one] | 0.1 to 100
O=C1COc2cc(Nc3cc(F)c(N4CCC(C(F)(F)F)CC4)c(F)c3)ccc2N1 [Compound 136, 7-((3,5-difluoro-4-(4-(trifluoromethyl)piperidin-1-yl)phenyl)amino)-2H-benzo[b][1,4]oxazin-3(4H)-one] | 0.1 to 100
CCC(C)(C)c1ccc(Nc2ccc3c(c2)OCC(=O)N3C)cc1 [Compound 38, 4-methyl-7-((4-(tert-pentyl)phenyl)amino)-2H-benzo[b][1,4]oxazin-3(4H)-one] | 0.1 to 100
CC1CN(c2ccc(Nc3ccc4c(c3)nnn4C)cc2)CC(C)O1 (stereo not drawn) [Compound 207, N-(4-(2,6-dimethylmorpholino)phenyl)-1-methyl-1H-benzo[d][1,2,3]triazol-5-amine] | 0.1 to 100
Cc1cc(N2CC(C)OC(C)C2)ccc1Nc1ccc2c(c1)OCC(=O)N2 (stereo not drawn) [Compound 96] | 0.1 to 100
CCC(C)(C)c1ccc(Nc2ccc3c(c2)n(C)c(=O)n3C)cc1 [Compound 411, 1,3-dimethyl-5-((4-(tert-pentyl)phenyl)amino)-1,3-dihydro-2H-benzo[d]imidazol-2-one] | 0.1 to 100
CNCCCN1C(=O)COc2cc(Nc3ccc(N4CC(C)OC(C)C4)cc3C)ccc21 (stereo not drawn) [Compound 50, 7-((4-(2,6-dimethylmorpholino)-2-methylphenyl)amino)-4-(3-(methylamino)propyl)-2H-benzo[b][1,4]oxazin-3(4H)-one] | 0.1 to 100
CC(C)(C)NC(=O)N1CCOc2cc(Nc3ccc(N4CCC(C(F)(F)F)CC4)cc3)ccc21 [Compound 25] | 0.1 to 100
CCC1Oc2cc(Nc3ccc(N4CC(C)OC(C)C4)cc3)ccc2NC1=O (stereo not drawn) [Compound 154, 7-((4-(2,6-dimethylmorpholino)phenyl)amino)-2-ethyl-2H-benzo[b][1,4]oxazin-3(4H)-one] | 0.1 to 100
CC1CCN(c2ccc(Nc3ccc4c(c3)c(N)nn4C)cc2)CC1 [Compound 352, 1-methyl-N5-(4-(4-methylpiperidin-1-yl)phenyl)-1H-indazole-3,5-diamine] | 0.1 to 100
Cc1cc(Nc2ccc3c(c2)OCC(=O)N3)cnc1N1CCC(C(F)(F)F)CC1 [Compound 150, 7-((5-methyl-6-(4-(trifluoromethyl)piperidin-1-yl)pyridin-3-yl)amino)-2H-benzo[b][1,4]oxazin-3(4H)-one] | 0.1 to 100
CN1Cc2cc(Nc3cnc(N4CCCCC4)c(F)c3)ccc2C1=O [Compound 183, 5-((5-fluoro-6-(piperidin-1-yl)pyridin-3-yl)amino)-2-methylisoindolin-1-one] | 0.1 to 100
COc1cc(Nc2ccc(N3CCC(C(F)(F)F)CC3)cc2)cc2c1oc(=O)n2C [Compound 400, 7-methoxy-3-methyl-5-((4-(4-(trifluoromethyl)piperidin-1-yl)phenyl)amino)benzo[d]oxazol-2(3H)-one] | 0.1 to 100
Cn1c(=O)n(C)c2cc(Nc3ccc(C(F)(F)F)cc3)ccc21 [Compound 404, 1,3-dimethyl-5-((4-(trifluoromethyl)phenyl)amino)-1,3-dihydro-2H-benzo [d]imidazol-2-one] | 0.1 to 100

Same assay, conditions: Homo sapiens; HT-1080 cells treated with RSL3; 3-fold, 10-point dilution, 1.1 μM highest concentration; Table 3; read-out: EC50 (nM), ferroptosis inhibitory activity

SMILES | EC50 [nM]
O=C1COc2cc(Nc3ccc(N4C5CCC4CC5)cc3)ccc2N1 [Compound 549, 7-((4-(7-azabicyclo[2.2.1]heptan-7-yl)phenyl)amino)-2H-benzo[b][1,4]oxazin-3(4H)-one] | 0.1 to 100
Cc1cc(N2CCCC2)ccc1Nc1ccc2c(c1)OCC(=O)N2 [Compound 563, 7-((2-methyl-4-(pyrrolidin-1-yl)phenyl)amino)-2H-benzo[b][1,4]oxazin-3(4H)-one] | 0.1 to 100
COc1cc(Nc2ccc3c(c2)OCC(=O)N3)ccc1N1CCC(C(F)(F)F)CC1 [Compound 485, 7-((3-methoxy-4-(4-(trifluoromethyl)piperidin-1-yl)phenyl)amino)-2H-benzo[b][1,4]oxazin-3(4H)-one] | 0.1 to 100
Cc1cc(N2CC(C)OC(C(F)(F)F)C2)ccc1Nc1ccc2c(c1)OCC(=O)N2 (stereo not drawn) [Compound 562, 7-((2-methyl-4-(2-methyl-6-(trifluoromethyl)morpholino)phenyl)amino)-2H-benzo[b][1,4]oxazin-3(4H)-one] | 0.1 to 100
Cc1cc(N2CCCCC2)ccc1Nc1ccc2c(c1)OCC(=O)N2C [Compound 506] | 0.1 to 100
Cc1cc(N2CCC(C(F)(F)F)CC2)cc2c1[nH]c1cc3cnn(C(N)=O)c3cc12 [Compound 615, 6-methyl-8-(4-(trifluoromethyl)piperidin-1-yl)pyrazolo[4,3-b]carbazole-1(5H)-carboxamide] | 1000 to 10000
CC1CCN(c2ccc(Nc3ccc4c(c3)OCC(=O)N4)cc2)CC1 [Compound 507, 7-((4-(4-methylpiperidin-1-yl)phenyl)amino)-2H-benzo[b][1,4]oxazin-3(4H)-one] | 0.1 to 100
Cc1cc(N2CCC(C(F)(F)F)CC2)ccc1Nc1ccc2[nH]c(N)nc2c1 [Compound 526, N5-(2-methyl-4-(4-(trifluoromethyl)piperidin-1-yl)phenyl)-1H-benzo[d]imidazole-2,5-diamine] | 0.1 to 100
COC1(C(F)(F)F)CN(c2ccc(Nc3ccc4c(c3)OCCC(=O)N4)c(C)c2)C1 [Compound 645, 8-[4-[3-methoxy-3-(trifluoromethyl)azetidin-1-yl]-2-methyl-anilino]-3,5-dihydro-2H-1,5-benzoxazepin-4-one] | 0.1 to 100
CCc1nc(N2C[C@@H](C)O[C@@H](C)C2)ccc1Nc1ccc2c(c1)OCC(=O)N2 [Compound 522, 7-((6-((2S,6R)-2,6-dimethylmorpholino)-2-ethylpyridin-3-yl)amino)-2H-benzo[b][1,4]oxazin-3(4H)-one] | 0.1 to 100

Reference: patent publication US20240327393A1 (SIRONAX LTD., priority 2021, published 2024)
